{"source": "patent US5312831A", "about": "“Urethanes and ureas that induce cytokine production” (American Cyanamid Company, priority 1993, dated 1994)", "system": "CSF", "assay": "Serum colony stimulating factor (CSF) assay in mice", "format": "in vivo, mouse", "conditions": "serum 4 hours after injection", "method": "Colony forming assays Granulocyte-Macrophage (CFU-GM)--Mice are treated with 150 mg/kg of 5-Fu and treatment with test compound begins 24 hrs. later. On consecutive days, mice are killed by cervical dislocation and the femurs removed under sterile conditions. Femurs are flushed with 1 ml of ice cold medium (Iscove's supplemented with 20% FCS, 1% penicillin-streptomycin, 1% glutamine and 5×10^-5 M 2-mercaptoethanol). Bone marrow cells (5×10^5) are then plated in 12×75 mm tissue culture plates in 3 ml of warm ararose (3%) in Iscove's medium with 100 Units/ml of recombinant mouse GM-CSF purchased from Genzyme (Boston, Mass.). Plates are incubated for 7 days at 37° C. in 5% CO2. After 7 days, colonies of 50 cells or greater are enumerated under a dissecting microscope.\nBone marrow cells are prepared as described above for the CFU-GM assay. The cells are then incubated in soft agar with an 0.3% final concentration of serum taken from mice 4 hours after injection with test compounds. After 7 days of incubation at 37° C., the number of colony forming (CFU) cells per 10^5 plated bone marrow cells is determined by counting colonies of more than 50 cells under a dissecting microscope. The data are reported as CFU/10^5 bone marrow cells.", "data": [{"smiles": "CCCCCCC(=O)N[C@@H](C(=O)O)[C@@H](C)OC(=O)N[C@@H](CCC[C@@H](N)C(=O)O)C(=O)N[C@H](C)C(=O)O", "note": "[Example 28, [R-(R*,R*)]-N-(R)-6-carboxy-N^2-[[2-carboxy-1-methyl-2-[(1-oxoheptyl)amino]ethoxy]carbonyl]-L-lysyl]-D-Alanine]", "values": [{"measurement": "CSF production, CFU/100,000 Bone Marrow Cells", "setting": "0.1 mg/kg", "result": "95 ± 16 CFU/100,000 Bone Marrow Cells"}, {"measurement": "CSF production, CFU/100,000 Bone Marrow Cells", "setting": "1.0 mg/kg", "result": "101 ± 8 CFU/100,000 Bone Marrow Cells"}]}]}
